# In patent publication US9663510B2, “Substituted triazolopyridines and their use as TTK inhibitors” (Bayer Intellectual Property GmbH, priority 2011, dated 2017):
# pIC50: −log10 of the molar value. Like-named read-outs stand apart in the source and are kept apart here.
# Experiments:
# [1] = test system: HeLa human cervical tumor cells; assay: HeLa cell proliferation assay (crystal violet); assay type: cell-based; settings: 96 h, 4 days incubation, read-out: Inhibition of cell proliferation, cell Line: HeLa IC50
# human kinase Mps-1 = human kinase Mps-1 (Homo sapiens (Human), UniProt P33981); assay: Mps-1 kinase assay (TR-FRET); assay type: biochemical
# [2] = Metabolic stability in vitro, dog liver microsomes (calculation of Fmax); assay type: in vitro ADME; settings: maximal oral bioavailability calculated from microsomal half-life, 1 μM
# Description: (§1) The metabolic stability of test compounds in vitro was determined by incubating them at 1 μM with a suspension liver microsomes in 100 mM phosphate buffer, pH7.4 (NaH2PO4×H2O+Na2HPO4×2H2O) at a protein concentration of 0.5 mg/mL and at 37° C. The reaction was activated by adding a co-factor mix containing 1.2 mg NADP, 3 IU glucose-6-phosphate dehydrogenase, 14.6 mg glucose-6-phosphate and 4.9 mg MgCl2 in phosphate buffer, pH 7.4. Organic solvent in the incubations was limited to <0.2% dimethylsulfoxide (DMSO) and <1% methanol. During incubation, the microsomal suspensions were continuously shaken and aliquots were taken at 2, 8, 16, 30, 45 and 60 min, to which equal volumes of cold methanol were immediately added. Samples were frozen at −20° C. over night, subsequently centrifuged for 15 minutes at 3000 rpm and the supernatant was analyzed with an Agilent 1200 HPLC-system with LCMS/MS detection.
# (§2) The half-life of a test compound was determined from the concentration-time plot. From the half-life the intrinsic clearances were calculated. Together with the additional parameters liver blood flow, specific liver weight and microsomal protein content the hepatic in vivo blood clearance (CL) and the maximal oral bioavailability (Fmax) were calculated for the different species. The following parameter values were used: Liver blood flow—1.3 L/h/kg (human), 2.1 L/h/kg (dog), 4.2 L/h/kg (rat); specific liver weight—21 g/kg (human), 39 g/kg (dog), 32 g/kg (rat); microsomal protein content—40 mg/g.
# (§3) With the described assay only phase-I metabolism of microsomes is reflected, e.g. typically oxidoreductive reactions by cytochrome P450 enzymes and flavin mono-oxygenases (FMO) and hydrolytic reactions by esterases (esters and amides).
# [3] = Metabolic stability in vitro, rat liver microsomes (calculation of Fmax); assay type: in vitro ADME; settings: maximal oral bioavailability calculated from microsomal half-life, 1 μM
# Description: as §1, §2, §3
# [4] = read-out: Mps-1 Inhibition, IC50 (Assay with 10 μM ATP), 10 μM ATP
# [5] = read-out: Mps-1 Inhibition, IC50 (Assay with 2 mM ATP), 2 mM ATP
# Sequence of human kinase Mps-1 (P33981 whole entry): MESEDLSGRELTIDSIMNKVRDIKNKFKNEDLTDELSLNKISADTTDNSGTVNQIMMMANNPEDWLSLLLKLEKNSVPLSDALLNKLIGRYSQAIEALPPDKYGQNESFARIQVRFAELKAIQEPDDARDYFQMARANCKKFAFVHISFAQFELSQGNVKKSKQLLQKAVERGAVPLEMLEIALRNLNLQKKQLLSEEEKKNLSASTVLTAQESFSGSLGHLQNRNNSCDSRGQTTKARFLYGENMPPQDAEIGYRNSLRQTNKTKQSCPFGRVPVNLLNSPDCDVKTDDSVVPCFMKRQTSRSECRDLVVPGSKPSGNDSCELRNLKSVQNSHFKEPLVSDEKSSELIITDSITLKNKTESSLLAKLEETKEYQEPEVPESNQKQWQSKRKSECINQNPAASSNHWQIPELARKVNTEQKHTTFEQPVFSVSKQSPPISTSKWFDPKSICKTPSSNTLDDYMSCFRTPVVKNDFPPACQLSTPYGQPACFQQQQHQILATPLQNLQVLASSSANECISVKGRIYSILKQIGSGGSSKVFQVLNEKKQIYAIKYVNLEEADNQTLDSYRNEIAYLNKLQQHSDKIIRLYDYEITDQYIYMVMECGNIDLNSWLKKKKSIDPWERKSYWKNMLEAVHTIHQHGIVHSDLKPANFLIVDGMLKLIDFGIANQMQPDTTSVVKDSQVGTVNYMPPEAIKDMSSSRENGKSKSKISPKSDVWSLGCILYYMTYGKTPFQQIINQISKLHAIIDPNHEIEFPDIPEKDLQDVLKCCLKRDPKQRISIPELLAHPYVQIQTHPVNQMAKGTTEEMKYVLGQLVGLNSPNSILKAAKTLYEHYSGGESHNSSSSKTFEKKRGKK
SMILES,pIC50 [1],pIC50 (human kinase Mps-1; [4]),pIC50 (human kinase Mps-1; [5]),other results
"COc1cc(C(=O)N(C)C)ccc1Nc1nc2ccc(-c3ccc(NC(=O)[C@H](C)c4ccc(F)cc4)cc3)cn2n1 [Example01.12, 4-{[6-(4-{[(2R)-2-(4-fluorophenyl)propanoyl]amino}phenyl)[1,2,4]triazolo[1,5-a]pyridin-2-yl]amino}-3-methoxy-N,N-dimethylbenzamide]",> 6.70,> 9.00,> 9.00,–
"COc1cc(C(=O)N2CCCC2)ccc1Nc1nc2ccc(-c3ccc(NC(=O)[C@H](C)c4ccc(F)cc4)cc3)cn2n1 [Example01.13, (2R)-2-(4-fluorophenyl)-N-[4-(2-{[2-methoxy-4-(pyrrolidin-1-ylcarbonyl)phenyl]amino}[1,2,4]triazolo[1,5-a]pyridin-6-yl)phenyl]propanamide]",> 6.40,> 9.00,> 9.00,–
"C[C@@H](C(=O)Nc1ccc(-c2ccc3nc(Nc4ccc(C(=O)N5CC(F)C5)cc4OCC(F)(F)F)nn3c2)cc1)c1ccc(F)cc1 [Example01.14, (2R)—N-{4-[2-({4-[(3-fluoroazetidin-1-yl)carbonyl]-2-(2,2,2-trifluoroethoxy)phenyl}amino)[1,2,4]triazolo[1,5-a]pyridin-6-yl]phenyl}-2-(4-fluorophenyl)propanamide]",–,> 9.00,> 9.00,–
"C[C@@H](C(=O)Nc1ccc(-c2ccc3nc(Nc4ccc(C(=O)N5CC(O)C5)cc4OCC(F)(F)F)nn3c2)cc1)c1ccc(F)cc1 [Example01.15, (2R)-2-(4-fluorophenyl)-N-{4-[2-({4-[(3-hydroxyazetidin-1-yl)carbonyl]-2-(2,2,2-trifluoroethoxy)phenyl}amino)[1,2,4]triazolo[1,5-a]pyridin-6-yl]phenyl}propanamide]",> 7.00,> 9.00,> 9.00,–
"C[C@@H](C(=O)Nc1ccc(-c2ccc3nc(Nc4ccc(C(=O)N5CCCC5)cc4OCC(F)(F)F)nn3c2)cc1)c1ccc(F)cc1 [Example 01.16, (2R)-2-(4-fluorophenyl)-N-[4-(2-{[4-(pyrrolidin-1-ylcarbonyl)-2-(2,2,2-trifluoroethoxyl)phenyl]amino}[1,2,4]triazolo[1,5-a]pyridin-6-yl)phenyl]propanamide]",> 7.00,> 9.00,–,pIC50 (human kinase Mps-1; 2 mM ATP): 8.89
"COc1cc(S(C)(=O)=O)ccc1Nc1nc2ccc(-c3ccc(NC(=O)[C@H](CO)c4ccc(F)cc4)cc3)cn2n1 [Example 01.17, (2S)-2-(4-fluorophenyl)-3-hydroxy-N-[4-(2-{[2-methoxy-4-(methylsulfonyl)phenyl]amino}[1,2,4]triazolo[1,5-a]pyridin-6-yl)phenyl]propanamide]",> 6.22,> 9.00,–,pIC50 (human kinase Mps-1; 2 mM ATP): 8.32
"O=C(Nc1ccc(-c2ccc3nc(Nc4ccc(C(=O)N5CC(F)C5)cc4OCC(F)(F)F)nn3c2)cc1)[C@H](CO)c1ccc(F)cc1 [Example 01.18, (2S)—N-{4-[2-({4-[(3-fluoroazetidin-1-yl)carbonyl]-2-(2,2,2-trifluoroethoxyl)phenyl}amino)[1,2,4]triazolo[1,5-a]pyridin-6-yl]phenyl}-2-(4-fluorophenyl)-3-hydroxypropanamide]",> 7.00,> 9.00,> 9.00,–
"CS(=O)(=O)c1ccc(Nc2nc3ccc(-c4ccc(NC(=O)[C@H](N)c5ccc(F)cc5)cc4)cn3n2)c(OCC(F)(F)F)c1 [Example 01.19, (2R)-2-amino-2-(4-fluorophenyl)-N-[4-(2-{[4-(methylsulfonyl)-2-(2,2,2-trifluoroethoxyl)phenyl]amino}[1,2,4]triazolo[1,5-a]pyridin-6-yl)phenyl]ethanamide]",> 6.70,> 9.00,> 9.00,–
"COc1cc(N2CCOC2=O)ccc1Nc1nc2ccc(-c3ccc(NC(=O)[C@H](N)c4ccc(F)cc4)cc3)cn2n1 [Example 01.20, (2R)-2-amino-2-(4-fluorophenyl)-N-[4-(2-{[2-methoxy-4-(2-oxo-1,3-oxazolidin-3-yl)phenyl]amino}[1,2,4]triazolo[1,5-a]pyridin-6-yl)phenyl]ethanamide]",> 6.70,> 9.00,–,pIC50 (human kinase Mps-1; 2 mM ATP): 8.82
"COc1cc(C(=O)N2CC(F)C2)ccc1Nc1nc2ccc(-c3ccc(NC(=O)[C@H](N)c4ccc(F)cc4)cc3)cn2n1 [Example 01.21, (2R)-2-amino-N-{4-[2-({4-[(3-fluoroazetidin-1-yl)carbonyl]-2-methoxyphenyl}amino)[1,2,4]triazolo[1,5-a]pyridin-6-yl]phenyl}-2-(4-fluorophenyl)ethanamide]",> 6.70,> 9.00,> 9.00,–
"COc1cc(C(=O)N2CCC2)ccc1Nc1nc2ccc(-c3ccc(NC(=O)[C@H](N)c4ccc(F)cc4)cc3)cn2n1 [Example 01.22, (2R)-2-amino-N-[4-(2-{[4-(azetidin-1-ylcarbonyl)-2-methoxyphenyl]amino}[1,2,4]triazolo[1,5-a]pyridin-6-yl)phenyl]-2-(4-fluorophenyl)ethanamide]",> 6.70,> 9.00,> 9.00,–
"COc1cc(C(=O)N2CCCC2)ccc1Nc1nc2ccc(-c3ccc(NC(=O)[C@H](N)c4ccc(F)cc4)cc3)cn2n1 [Example 01.23, (2R)-2-amino-2-(4-fluorophenyl)-N-[4-(2-{[2-methoxy-4-(pyrrolidin-1-ylcarbonyl)phenyl]amino}[1,2,4]triazolo[1,5-a]pyridin-6-yl)phenyl]ethanamide]",> 6.40,> 9.00,> 9.00,–
"N[C@@H](C(=O)Nc1ccc(-c2ccc3nc(Nc4ccc(C(=O)N5CC(F)C5)cc4OCC(F)(F)F)nn3c2)cc1)c1ccc(F)cc1 [Example 01.24, (2R)-2-amino-N-{4-[2-({4-[(3-fluoroazetidin-1-yl)carbonyl]-2-(2,2,2-trifluoroethoxyl)phenyl}amino)[1,2,4]triazolo[1,5-a]pyridin-6-yl]phenyl}-2-(4-fluorophenyl)ethanamide]",> 7.00,> 9.00,> 9.00,–
"N[C@@H](C(=O)Nc1ccc(-c2ccc3nc(Nc4ccc(C(=O)N5CCCC5)cc4OCC(F)(F)F)nn3c2)cc1)c1ccc(F)cc1 [Example 01.25, (2R)-2-amino-2-(4-fluorophenyl)-N-[4-(2-{[4-(pyrrolidin-1-ylcarbonyl)-2-(2,2,2-trifluoroethoxyl)phenyl]amino}[1,2,4]triazolo[1,5-a]pyridin-6-yl)phenyl]ethanamide]",> 6.70,> 9.00,> 9.00,–
N#Cc1c(F)cccc1Nc1nc2ccc(-c3ccc(NC(=O)Cc4ccc(F)cc4)cc3)cn2n1 [reference compound],–,–,–,Dog liver microsomes; Fmax [%] [2]: 15%
COc1ccccc1Nc1nc2ccc(-c3ccc(NC(=O)Cc4ccccc4)cc3)cn2n1 [reference compound],–,–,–,Rat liver microsomes; Fmax [%] [3]: 40%
N#Cc1ccccc1Nc1nc2ccc(-c3ccc(NC(=O)Cc4ccc(F)cc4)cc3)cn2n1 [reference compound],–,–,–,Rat liver microsomes; Fmax [%] [3]: 40%
COC(C(=O)Nc1ccc(-c2ccc3nc(Nc4ccccc4C#N)nn3c2)cc1)c1ccccc1 (centres unmarked) [reference compound],–,–,–,Rat liver microsomes; Fmax [%] [3]: 19%
N#Cc1ccccc1Nc1nc2ccc(-c3ccc(NC(=O)C(F)(F)c4ccccc4)cc3)cn2n1 [reference compound],–,–,–,Rat liver microsomes; Fmax [%] [3]: 27%
N#Cc1ccccc1Nc1nc2ccc(-c3ccc(NC(=O)C(F)c4ccccc4)cc3)cn2n1 (centres unmarked) [reference compound],–,–,–,Rat liver microsomes; Fmax [%] [3]: 26%
COc1cc(C(=O)N2CCOCC2)ccc1Nc1nc2ccc(-c3ccc(NC(=O)Cc4ccc(F)cc4)cc3)cn2n1 [reference compound],–,–,–,Rat liver microsomes; Fmax [%] [3]: 48%
CCOc1cc(S(C)(=O)=O)ccc1Nc1nc2ccc(-c3ccc(C(=O)NCc4ccc(F)cc4)c(C)c3)cn2n1 [reference compound],–,–,–,Dog liver microsomes; Fmax [%] [2]: 12%
COc1cc(C(=O)NCC(F)(F)F)ccc1Nc1nc2ccc(-c3ccc(NC(=O)Cc4ccc(F)cc4)cc3)cn2n1 [reference compound],–,–,–,Dog liver microsomes; Fmax [%] [2]: 40%
COc1cc(N2CCOC2=O)ccc1Nc1nc2ccc(-c3ccc(NC(=O)Cc4ccc(F)cc4)cc3)cn2n1 [reference compound],–,–,–,Dog liver microsomes; Fmax [%] [2]: 17%
COc1cc(S(C)(=O)=O)ccc1Nc1nc2ccc(-c3ccc(NC(=O)Cc4ccc(F)cc4)cc3)cn2n1 [reference compound],–,–,–,Dog liver microsomes; Fmax [%] [2]: 10%
CS(=O)(=O)c1ccc(Nc2nc3ccc(-c4ccc(NC(=O)Cc5ccc(F)cc5)cc4)cn3n2)c(OCC(F)(F)F)c1 [reference compound],–,–,–,Dog liver microsomes; Fmax [%] [2]: 25%
